# Data taken from US20160361288A1, “PHARMACEUTICAL COMPOSITIONS FOR PREVENTING OR TREATING DIABETIC N[…] ACTIVITY INHIBITOR OF TENC1” (POSTECH ACADEMY-INDUSTRY FOUNDATION, priority 2015, published 2016).
# Assays:
# differentiated podocyte = test: Filtration function of differentiated podocyte under high glucose (protein quantification); type: cell-based; details: high glucose condition of 30 mmol/L vs normal glucose 5 mmol/L; FIG. 11B
# nephrin = test: Nephrin phosphorylation in kidney tissue of db/db mouse (immunoprecipitation); type: in vivo; details: 300 mg/kg orally daily for 2 weeks, FIG. 12
# Method: (§1) An effect of DHTS, which is the representative material of the TENC1 inhibitors found through the screening described in Example 5, was identified using a diabetic nephropathy animal model. To this end, as a diabetic nephropathy animal model, a type II diabetic model, that is, a db/db mouse was used, and as a control, a db/m mouse was used. 10 week-old male db/m and db/db mice were divided into three groups including a group in which a vehicle was administered to a db/m mouse, a group in which a vehicle was administered to a db/db mouse, and a group in which 300 mg/kg of DHTS was administered to a db/db mouse for experiments, and the vehicle or drug was orally administered daily for 2 weeks according to each condition. As the vehicle, 1% carboxymethyl cellulose was used.
# (§2) Further, to investigate whether the above result is obtained by inhibiting TENC1-induced nephrin dephosphorylation and increased mTORC1 signaling, immunoprecipitation and western blotting were performed with a kidney tissue sample extracted from a mouse.
# mTORC1 signaling = mTORC1 signaling (S6K phosphorylation) in kidney tissue of db/db mouse (western blotting); type: in vivo; details: 300 mg/kg orally daily for 2 weeks, FIG. 13
# Method: as §1, §2
# TENC1 = target: T1, TENC1 (Homo sapiens, UniProt Q63HR2, P1246L); test: Malachite Green assay screening for TENC1 inhibitor (PTPase activity of TENC1); type: biochemical; details: TENC1 protein isolated from cells, compared with control; FIG. 8
# T1 construct: made in house; host or cells: cells (type not specified)
# T1 sequence (Q63HR2 1-1409 P1246L): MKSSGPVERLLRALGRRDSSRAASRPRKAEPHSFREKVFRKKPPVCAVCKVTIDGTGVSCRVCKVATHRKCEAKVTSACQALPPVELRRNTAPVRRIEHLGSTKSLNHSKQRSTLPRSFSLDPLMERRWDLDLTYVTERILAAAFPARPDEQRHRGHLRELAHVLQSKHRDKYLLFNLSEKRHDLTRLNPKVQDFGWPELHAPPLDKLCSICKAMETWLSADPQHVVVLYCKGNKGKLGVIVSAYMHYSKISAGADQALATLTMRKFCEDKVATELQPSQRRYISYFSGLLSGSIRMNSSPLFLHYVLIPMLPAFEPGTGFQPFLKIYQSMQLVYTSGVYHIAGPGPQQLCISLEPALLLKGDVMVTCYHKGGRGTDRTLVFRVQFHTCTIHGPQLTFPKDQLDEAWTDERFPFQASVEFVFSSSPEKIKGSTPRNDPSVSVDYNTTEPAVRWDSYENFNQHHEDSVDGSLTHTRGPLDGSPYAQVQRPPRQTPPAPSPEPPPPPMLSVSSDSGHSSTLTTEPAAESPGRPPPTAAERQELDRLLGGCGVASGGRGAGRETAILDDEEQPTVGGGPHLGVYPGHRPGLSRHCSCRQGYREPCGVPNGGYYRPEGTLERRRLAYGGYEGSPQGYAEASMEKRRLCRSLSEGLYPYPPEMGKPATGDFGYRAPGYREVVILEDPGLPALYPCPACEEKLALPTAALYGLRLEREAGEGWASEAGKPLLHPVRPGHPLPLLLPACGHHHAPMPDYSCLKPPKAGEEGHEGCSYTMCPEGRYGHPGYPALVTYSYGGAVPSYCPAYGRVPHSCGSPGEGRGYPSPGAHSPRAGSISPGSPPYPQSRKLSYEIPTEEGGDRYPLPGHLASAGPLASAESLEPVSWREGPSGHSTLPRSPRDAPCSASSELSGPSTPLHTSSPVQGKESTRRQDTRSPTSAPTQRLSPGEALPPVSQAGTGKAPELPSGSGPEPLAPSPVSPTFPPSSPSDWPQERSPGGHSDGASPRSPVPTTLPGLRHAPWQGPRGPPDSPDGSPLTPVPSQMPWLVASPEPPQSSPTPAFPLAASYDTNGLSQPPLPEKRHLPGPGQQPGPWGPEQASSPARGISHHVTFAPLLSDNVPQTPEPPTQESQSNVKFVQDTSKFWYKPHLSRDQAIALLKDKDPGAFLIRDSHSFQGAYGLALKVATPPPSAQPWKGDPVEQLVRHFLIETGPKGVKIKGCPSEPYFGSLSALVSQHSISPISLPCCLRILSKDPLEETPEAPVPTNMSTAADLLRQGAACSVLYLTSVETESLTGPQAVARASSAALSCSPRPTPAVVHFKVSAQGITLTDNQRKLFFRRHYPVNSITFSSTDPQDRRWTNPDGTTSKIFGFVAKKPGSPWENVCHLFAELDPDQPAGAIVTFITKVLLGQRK
# Method: According to the above results, it was confirmed that TENC1 overexpressed in a high glucose environment known as a leading cause of diabetic nephropathy inhibits phosphorylation of nephrin caused by dephosphorylation, and induces hypertrophy of the podocyte cell line. For this reason, to inhibit the hypertrophy of the podocyte cell line, screening was performed through a Malachite Green assay for finding a TENC1 inhibitor.
# TENC1 protein isolated from the cells and each of the natural product library candidate compounds were put together for a predetermined time, and the PTPase activity of TENC1 was measured. […] Here, as a positive control, a PTPase inhibitor, sodium vanadate (Na3VO4; NAV) was used. Since there were almost no molecules left in the test tube, the method has a higher probability of discovering a direct regulator, compared with a cellular-level screening method.
# db/db mouse = test: Diabetic nephropathy animal model, db/db mouse (fasting serum glucose, kidney weight, proteinuria); type: in vivo; details: 300 mg/kg orally daily for 2 weeks
# Method: as §1
# First, after the experiment described above, blood was taken from a mouse to measure a fasting serum glucose level. As a result, referring to FIG. 9, it was confirmed that the fasting serum glucose level was not decreased by the administration of DHTS for two weeks.
# Therefore, it was confirmed that DHTS can improve the renal hypertrophy.
compound,measurement,setting,value
"Cc1cccc2c3c(ccc12)C1=C(C(=O)C3=O)[C@@H](C)CO1 [DHTS, (1R)-1,6-dimethyl-1,2-dihydronaphtho[1,2-g][1]benzofuran-10,11-dione]",filtration function of the podocyte,differentiated podocyte,improved to a level similar to the result obtained under a the normal glucose condition
same,nephrin phosphorylation in kidney tissue,nephrin,recovered
same,S6K phosphorylation (pS6K) in kidney tissue,mTORC1 signaling,effectively inhibited
same,inhibitory effect on the PTPase activity of TENC1,TENC1,inhibitory effect
same,fasting serum glucose level,db/db mouse; FIG. 9,not decreased
same,proteinuria (albumin ELISA),"db/db mouse; compared with vehicle db/db mouse, FIG. 11A",significantly reduced
same,kidney weight (renal hypertrophy; ratio of kidney weight to body weight),"db/db mouse; vs vehicle db/db and db/m, FIG. 10",such an increase was not shown
